We go through five compounds from ChEMBL document CHEMBL1201862, “PubChem BioAssay data set” (2004).

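Method: 48-hour compound exposure of cells in 96-well plates, five concentrations, linear interpolation of endpoints. GI50 is the concentration that inhibits growth by half.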 Active and inactive are the calls of the source. Cut-off read from the data, not from the text of the source: active = GI50 up to about 1.1 µM and inactive = higher. Where only a bound is given, the exact number is not on record here.

Test systems include A549; UO-31; SN12C; OVCAR-4; U-251; RPMI-8226; OVCAR-3; KM12; SK-MEL-2; UACC-257; M14; SF-539; UACC-62; OVCAR-8; NCI-H226; HCT-15; HOP-62; SR.
Holding throughout (test): NCI anticancer screen, dose series, 48 h

Regarding `NC(=O)CCC(NC(=O)C(F)(F)F)C(=O)O` (stereo not drawn), the GI50 in the test on A549, in the test with UO-31, in the test with SN12C, in the test on OVCAR-4, with U-251 and with RPMI-8226 was > 100 µM (inactive) each time. Moreover, the GI50 in the test with OVCAR-3, in the test with KM12, in the test with SK-MEL-2, in the test with UACC-257, in the test on M14 and in the test with SF-539 was > 100 µM (inactive) each time. For the same compound, the GI50 in the test with UACC-62 was > 100 µM (inactive); in the test on OVCAR-8, > 100 µM (inactive); in the test on NCI-H226, > 100 µM (inactive); in the test with HCT-15 it was more than 100 µM; in the test on HOP-62 it was > 100 µM (inactive).
In the case of `Cc1nnc2c3nnc(C)n3c3ccccc3n12`, the GI50 in the test on A549, with UO-31, with SN12C, with OVCAR-4, in the test with U-251 and in the test with RPMI-8226 was > 100 µM (inactive) in each case. Further, the GI50 in the test with OVCAR-3, in the test with KM12, in the test on SK-MEL-2, with UACC-257, with M14 and in the test with SF-539 was > 100 µM (inactive) throughout. Also, the GI50 with UACC-62 is > 100 µM (inactive); with OVCAR-8, > 100 µM (inactive); in the test on NCI-H226, > 100 µM (inactive); in the test on HCT-15 it was more than 100 µM; in the test with HOP-62 it was > 100 µM (inactive).
Take `CCCCCCCCCCCCCC(=O)NCO`: the GI50 is > 100 µM (inactive) in the test on A549; 99.3 µM (inactive) in the test on UO-31; > 100 µM (inactive) in the test with SN12C; > 100 µM (inactive) with OVCAR-4; > 100 µM (inactive) in the test on U-251; > 100 µM (inactive) in the test on RPMI-8226. Further, the GI50 in the test on OVCAR-3, in the test with KM12, in the test with SK-MEL-2, in the test with UACC-257, with M14 and in the test on SF-539 was > 100 µM (inactive) in each case. The GI50 with UACC-62 was > 100 µM (inactive); with OVCAR-8, > 100 µM (inactive); in the test on NCI-H226, > 100 µM (inactive); with HCT-15, more than 100 µM; in the test with HOP-62 it was > 100 µM (inactive).
As to `CCCP1(=O)C=C(C)C(=C(Cl)Cl)C(C)=C1` (stereo not drawn), the GI50 was 33.7 µM (inactive) in the test with A549; 46.7 µM (inactive) in the test with UO-31; 24.6 µM (inactive) in the test on SN12C; > 100 µM (inactive) with OVCAR-4; > 100 µM (inactive) with U-251; 84.9 µM (inactive) in the test with OVCAR-3. In addition, the GI50 in the test on KM12 was 24.2 µM (inactive); in the test with SK-MEL-2, 16.3 µM (inactive); with UACC-257 it was 64.4 µM (inactive); in the test on M14 it was 33.7 µM (inactive); in the test with SF-539, 37.3 µM (inactive); with UACC-62 it was 44 µM (inactive). For the same compound, the GI50 was 24.5 µM (inactive) with SR, 37.9 µM (inactive) in the test with OVCAR-8, 30.7 µM with HCT-15 and 49.3 µM (inactive) in the test with HOP-62.
Turning to `O=C1/C(=C/c2ccc(Cl)cc2)COc2ccc(Br)cc21`, the GI50 is > 100 µM (inactive) in the test with A549; 80.4 µM (inactive) with UO-31; > 100 µM (inactive) with U-251; 6.22 µM (inactive) with RPMI-8226; > 100 µM (inactive) in the test with OVCAR-3; > 100 µM (inactive) in the test with KM12. Moreover, the GI50 in the test on SK-MEL-2, with UACC-257, in the test on SF-539, with OVCAR-8 and in the test on HOP-62 was > 100 µM (inactive) in each case.
